Measurements reported in article PMC3023919 (Chemistry & biology, 2010).

Assays:
[1] = system: hCB2 C6.47(257)S mutant; details: competitive binding with [^3H]-WIN55212-2; ref Pei et al., 2008; cited from earlier work
[2] = target: hCB2; details: read-out: hCB2 Ki; ref Rinaldi-Carmona et al., 1998; cited from earlier work
[3] = target: hCB2 C7.42(288)A (Homo sapiens, UniProt P34972, C288A); test: Saturation-binding assay with [^3H]-CP55940; details: HEK293 membranes; mean (95% CI)
[4] = target: hCB2 C7.38(284)7.42(288)A (Homo sapiens, UniProt P34972, C284A/C288A); test: Saturation-binding assay with [^3H]-CP55940; details: HEK293 membranes; mean (95% CI)
Sequence of hCB2 C7.38(284)7.42(288)A (P34972 whole entry C284A/C288A): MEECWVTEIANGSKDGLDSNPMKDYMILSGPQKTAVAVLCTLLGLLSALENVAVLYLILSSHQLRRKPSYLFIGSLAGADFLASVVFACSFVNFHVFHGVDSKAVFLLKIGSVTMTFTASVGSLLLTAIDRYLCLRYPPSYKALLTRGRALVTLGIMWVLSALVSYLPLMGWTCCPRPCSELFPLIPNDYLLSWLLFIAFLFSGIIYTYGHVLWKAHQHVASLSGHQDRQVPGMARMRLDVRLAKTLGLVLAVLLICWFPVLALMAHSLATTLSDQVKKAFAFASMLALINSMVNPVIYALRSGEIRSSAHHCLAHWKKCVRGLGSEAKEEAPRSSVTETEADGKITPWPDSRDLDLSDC

[5] = target: hCB2 C1.39(40)S (Homo sapiens, UniProt P34972, C40S); test: Saturation-binding assay with [^3H]-CP55940; details: HEK293 membranes, mean (95% CI)
Sequence of hCB2 C1.39(40)S (P34972 whole entry C40S): as the sequence (P34972 whole entry C284A/C288A) above, with C40S, A284C, A288C counted along it

[6] = target: hCB2 C137S (Homo sapiens, UniProt P34972, C134S); test: Saturation-binding assay with [^3H]-CP55940; details: HEK293 membranes; mean (95% CI)
Sequence of hCB2 C137S (P34972 whole entry C134S): as the sequence (P34972 whole entry C284A/C288A) above, with C134S, A284C, A288C counted along it

[7] = target: hCB2 C7.38(284)S (Homo sapiens, UniProt P34972, C284S); test: Saturation-binding assay with [^3H]-CP55940; details: HEK293 membranes; mean (95% CI)
Sequence of hCB2 C7.38(284)S (P34972 whole entry C284S): as the sequence (P34972 whole entry C284A/C288A) above, with A284S, A288C counted along it

[8] = target: hCB2 C313S (Homo sapiens, UniProt P34972, C313S); test: Saturation-binding assay with [^3H]-CP55940; details: HEK293 membranes; mean (95% CI)
Sequence of hCB2 C313S (P34972 whole entry C313S): as the sequence (P34972 whole entry C284A/C288A) above, with A284C, A288C, C313S counted along it

[9] = target: hCB2 C7.38(284)A (Homo sapiens, UniProt P34972, C284A); test: Saturation-binding assay with [^3H]-CP55940; details: HEK293 membranes; mean (95% CI)
Sequence of hCB2 C7.38(284)A (P34972 whole entry C284A): as the sequence (P34972 whole entry C284A/C288A) above, with A288C counted along it

[10] = target: hCB2 C175S (Homo sapiens, UniProt P34972, C175S); test: Saturation-binding assay with [^3H]-CP55940; details: HEK293 membranes; mean (95% CI)
Sequence of hCB2 C175S (P34972 whole entry C175S): as the sequence (P34972 whole entry C284A/C288A) above, with C175S, A284C, A288C counted along it

[11] = target: hCB2 C7.38(284)7.42(288)S (Homo sapiens, UniProt P34972, C284S/C288S); test: Saturation-binding assay with [^3H]-CP55940; details: HEK293 membranes; mean (95% CI)
Sequence of hCB2 C7.38(284)7.42(288)S (P34972 whole entry C284S/C288S): as the sequence (P34972 whole entry C284A/C288A) above, with A284S, A288S counted along it

[12] = target: hCB2 C6.47(257)S (Homo sapiens, UniProt P34972, C257S); test: Saturation-binding assay with [^3H]-CP55940; details: HEK293 membranes; mean (95% CI)
Sequence of hCB2 C6.47(257)S (P34972 whole entry C257S): as the sequence (P34972 whole entry C284A/C288A) above, with C257S, A284C, A288C counted along it

[13] = target: hCB2 WT (Homo sapiens, UniProt P34972); test: Saturation-binding assay with [^3H]-CP55940; details: HEK293 membranes; mean (95% CI)
Sequence of hCB2 WT (P34972 whole entry): as the sequence (P34972 whole entry C284A/C288A) above, with A284C, A288C counted along it

[14] = target: hCB2 C7.42(288)S (Homo sapiens, UniProt P34972, C288S); test: Saturation-binding assay with [^3H]-CP55940; details: HEK293 membranes; mean (95% CI)
Sequence of hCB2 C7.42(288)S (P34972 whole entry C288S): as the sequence (P34972 whole entry C284A/C288A) above, with A284C, A288S counted along it

Sequence of hCB2 C7.42(288)A (P34972 whole entry C288A): as the sequence (P34972 whole entry C284A/C288A) above, with A284C counted along it

SR144528
increased affinity relative to WT hCB2 [1]: 2-3 fold
Ki [2]: 0.6 nM

CCCCCCC(C)(C)c1ccc([C@@H]2C[C@H](O)CC[C@H]2CCCO)c(O)c1 [[^3H]-CP55940]
[^3H]-CP55940 Bmax [3]: 1.93 (1.69~2.17) pmol/mg
[^3H]-CP55940 Bmax [4]: 1.12 (1.04~1.20) pmol/mg
[^3H]-CP55940 Bmax [5]: 5.45 (4.99~5.92) pmol/mg
[^3H]-CP55940 Bmax ([5]; listed as CP55940): 5.45 pmol/mg
[^3H]-CP55940 Bmax [6]: 1.50 (1.31~1.70) pmol/mg
[^3H]-CP55940 Bmax [7]: 1.28 (1.21~1.36) pmol/mg
[^3H]-CP55940 Bmax [8]: 1.07 (1.01~1.13) pmol/mg
[^3H]-CP55940 Bmax [9]: 1.15 (1.03~1.26) pmol/mg
[^3H]-CP55940 Bmax [10]: 1.69 (1.61~1.78) pmol/mg
[^3H]-CP55940 Bmax [11]: 1.38 (1.28~1.48) pmol/mg
[^3H]-CP55940 Bmax [12]: 1.58 (1.50~1.66) pmol/mg
[^3H]-CP55940 Bmax [13]: 1.68 (1.61~1.74) pmol/mg
[^3H]-CP55940 Bmax [14]: 1.07 (1.01~1.13) pmol/mg
